Measured values published in patent US4687780A, “Anti-tumor compounds of platinum” (Johnson Matthey PLC, priority 1985, dated 1987).

Legend:
[1] = system: B16 melanoma; assay: anti-tumor activity against B16 melanoma in BDF1 female mice, i.p. 9 daily doses; type: in vivo; design: median survival time (MST): unit not given here; details: for % T/C (MST/MST control×100) / median survival time (MST): 9 daily doses from Day 1; for average weight change (AWC): by Day 6
Protocol: (§1) Compounds according to the invention were screened for anti-tumor activity against L1210 leukaemia and B16 melanoma in mice. The compounds were administered intraperitoneally as solutions or suspensions in water and "Tween" 80 as carrier to CDF1 male mice (L1210) and BDF1 female mice (B16). […] For each dose level, results are quoted in terms of median survival time (MST); the comparative effect (i.e. MST/MST control×100); average weight change (AWC) by Day 5 (L1210) or Day 6 (B16); and the number of mice alive (MA) at Day 5 (L1210) or Day 10 (B16).
(§2) Results were as follows for the compounds as prepared in Examples 3 and 4.
2. B16 (0.5 ml 10% BREI): treatment consisted of 9 daily doses beginning at Day 1.

[2] = system: ADJ/PC6A plasmacytoma; assay: activity against ADJ/PC6A plasmacytoma grown subcutaneously in mice, oral administration; type: in vivo, female Balb C^- mice; details: for ED90 (dose level causing a 90% reduction in tumor size): suspension in arachis oil
Protocol: (§3) Additionally, the same compounds were tested for activity against ADJ/PC6A plasmacytoma grown subcutaneously in female Balb C^- mice following oral administration as a suspension in arachis oil. Dosage levels were at 100μ mole/kg of body weight for pharmacokinetic tests to establish the extent of absorption into the systemic circulation.
(§4) Results are presented in terms of concentration (μg/ml) of Pt in the blood and cumulative percentage dose in urine, cage wash and faeces, all after specified time intervals. Results for anti-tumor effect are expressed as LD50 (mg/kg), ED90 (mg/kg), and TI (LD50 /ED90). The figures for LD50 (the dose level causing 50% deaths) and ED90 (the dose level causing a 90% reduction in tumor size) are determined by administering dosage levels ranging from lethal to non-tumor inhibitory. The therapeutic index (TI) is an indication of the selectivity of the compound as an anti-tumor agent.

[3] = system: malignant tumor; details: certain forms of malignant tumor in humans; cited from earlier work
[4] = system: L1210 leukaemia; assay: anti-tumor activity against L1210 leukaemia in CDF1 male mice, i.p. single dose Day 1; type: in vivo; design: median survival time (MST): unit not given here; details: for % T/C (MST/MST control×100) / median survival time (MST): single dose Day 1; for average weight change (AWC): by Day 5
Protocol: as §1, §2
1. L1210 (1×10^6 cells): treatment consisted of single dose on Day 1.

[5] = LD50 (dose level causing 50% deaths), oral administration; type: in vivo, female Balb C^- mice; details: suspension in arachis oil
Protocol: as §3, §4

[6] = pharmacokinetic tests: Pt in blood and cumulative percentage dose in urine, cage wash and faeces after oral administration; type: in vivo, female Balb C^- mice
Protocol: as §3, §4

## N.N.[Cl][Pt][Cl] [cisplatin, cis-diamminedichloroplatinum(II), reference compound]
[1]; 0.4 mg/kg
  % T/C (MST/MST control×100): 131%
  median survival time (MST): 25.5
[1]; 0.4 mg/kg, 9 daily doses, at Day 10
  number of mice alive (MA): 10/10
[1]; 0.4 mg/kg, 9 daily doses
  average weight change (AWC): -0.9 g
[1]; 0.8 mg/kg
  % T/C (MST/MST control×100): 164%
  median survival time (MST): 32.0
[1]; 0.8 mg/kg, 9 daily doses, at Day 10
  number of mice alive (MA): 10/10
[1]; 0.8 mg/kg, 9 daily doses
  average weight change (AWC): -1.5 g
[1]; 1.6 mg/kg
  % T/C (MST/MST control×100): 187%
  median survival time (MST): 36.5
[1]; 1.6 mg/kg, 9 daily doses, at Day 10
  number of mice alive (MA): 10/10
[1]; 1.6 mg/kg, 9 daily doses
  average weight change (AWC): -3.1 g
[1]; 2.4 mg/kg
  % T/C (MST/MST control×100): 231%
  median survival time (MST): 45.0
[1]; 2.4 mg/kg, 9 daily doses, at Day 10
  number of mice alive (MA): 10/10
[1]; 2.4 mg/kg, 9 daily doses
  average weight change (AWC): -3.9 g
[2]
  ED90 (dose level causing a 90% reduction in tumor size): 24 mg/kg
[3]
  treatment of malignant tumor: effective for the treatment of certain forms of malignant tumor in humans
[4]; 4 mg/kg
  % T/C (MST/MST control×100): 146%
  median survival time (MST): 9.5
[4]; 4 mg/kg, single dose, at Day 5
  number of mice alive (MA): 6/6
[4]; 4 mg/kg, single dose
  average weight change (AWC): -0.8 g
[4]; 6 mg/kg
  % T/C (MST/MST control×100): 169%
  median survival time (MST): 11.0
[4]; 6 mg/kg, single dose, at Day 5
  number of mice alive (MA): 6/6
[4]; 6 mg/kg, single dose
  average weight change (AWC): -3.2 g
[4]; 8 mg/kg
  % T/C (MST/MST control×100): 192%
  median survival time (MST): 12.5
[4]; 8 mg/kg, single dose, at Day 5
  number of mice alive (MA): 6/6
[4]; 8 mg/kg, single dose
  average weight change (AWC): -4.6 g
[4]; 10 mg/kg
  % T/C (MST/MST control×100): 123%
  median survival time (MST): 8.0
[4]; 10 mg/kg, single dose, at Day 5
  number of mice alive (MA): 6/6
[4]; 10 mg/kg, single dose
  average weight change (AWC): -4.7 g

## N.NC1CCCCC1.O=C([O-])C1(C(=O)[O-])CCC1.[Pt+2] [Ex. 3, ammine(cyclobutane-1,1-dicarboxylato)cyclohexylamine platinum(II)]
[5]
  LD50 (dose level causing 50% deaths): 1600 mg/kg
[1]; 6 mg/kg i.p.
  % T/C (MST/MST control×100): 136%
  median survival time (MST): 26.5
[1]; 6 mg/kg i.p., 9 daily doses, at Day 10
  number of mice alive (MA): 10/10
[1]; 6 mg/kg i.p., 9 daily doses
  average weight change (AWC): -0.3 g
[1]; 12 mg/kg i.p.
  % T/C (MST/MST control×100): 149%
  median survival time (MST): 29.0
[1]; 12 mg/kg i.p., 9 daily doses, at Day 10
  number of mice alive (MA): 10/10
[1]; 12 mg/kg i.p., 9 daily doses
  average weight change (AWC): -1.0 g
[1]; 18 mg/kg i.p.
  % T/C (MST/MST control×100): 174%
  median survival time (MST): 34.0
[1]; 18 mg/kg i.p., 9 daily doses, at Day 10
  number of mice alive (MA): 10/10
[1]; 18 mg/kg i.p., 9 daily doses
  average weight change (AWC): -1.6 g
[1]; 24 mg/kg i.p.
  % T/C (MST/MST control×100): 177%
  median survival time (MST): 34.5
[1]; 24 mg/kg i.p., 9 daily doses, at Day 10
  number of mice alive (MA): 10/10
[1]; 24 mg/kg i.p., 9 daily doses
  average weight change (AWC): -1.4 g
[2]
  therapeutic index TI (LD50/ED90): 22
  ED90 (dose level causing a 90% reduction in tumor size): 73 mg/kg
[4]; 40 mg/kg i.p.
  % T/C (MST/MST control×100): 154%
  median survival time (MST): 10.0
[4]; 40 mg/kg i.p., single dose, at Day 5
  number of mice alive (MA): 5/5
[4]; 40 mg/kg i.p., single dose
  average weight change (AWC): -0.1 g
[4]; 80 mg/kg i.p.
  % T/C (MST/MST control×100): 185%
  median survival time (MST): 12.0
[4]; 80 mg/kg i.p., single dose, at Day 5
  number of mice alive (MA): 6/6
[4]; 80 mg/kg i.p., single dose
  average weight change (AWC): -2.4 g
[4]; 120 mg/kg i.p.
  % T/C (MST/MST control×100): 185%
  median survival time (MST): 12.0
[4]; 120 mg/kg i.p., single dose, at Day 5
  number of mice alive (MA): 6/6
[4]; 120 mg/kg i.p., single dose
  average weight change (AWC): -0.6 g
[4]; 160 mg/kg i.p.
  % T/C (MST/MST control×100): 231%
  median survival time (MST): 15.0
[4]; 160 mg/kg i.p., single dose, at Day 5
  number of mice alive (MA): 5/6
[4]; 160 mg/kg i.p., single dose
  average weight change (AWC): -4.5 g
[6]; 1 hr, oral, 100μ mole/kg, suspension in arachis oil
  Blood conc. of Pt: 0.62 ± 0.11 μg/ml of whole blood
[6]; 2 hrs, oral, 100μ mole/kg, suspension in arachis oil
  Blood conc. of Pt: 0.80 ± 0.08 μg/ml of whole blood
[6]; 4 hrs, oral, 100μ mole/kg, suspension in arachis oil
  Blood conc. of Pt: 0.64 ± 0.03 μg/ml of whole blood
[6]; 7 hrs, oral, 100μ mole/kg, suspension in arachis oil
  Blood conc. of Pt: 0.51 ± 0.09 μg/ml of whole blood
[6]; 24 hrs, oral, 100μ mole/kg
  Cage wash (cumulative %): 5.1 ± 1.2%
  Faeces dose (cumulative %): 57.0 ± 14.1%
  Urine dose (cumulative %): 11.4 ± 2.1%
[6]; 24 hrs, oral, 100μ mole/kg, suspension in arachis oil
  Blood conc. of Pt: 0.16 ± 0.05 μg/ml of whole blood
[6]; 48 hrs, oral, 100μ mole/kg
  Cage wash (cumulative %): 6.4 ± 1.8%
  Faeces dose (cumulative %): 62.1 ± 13.7%
  Urine dose (cumulative %): 12.8 ± 1.8%
[6]; 48 hrs, oral, 100μ mole/kg, suspension in arachis oil
  Blood conc. of Pt: 0.16 ± 0.03 μg/ml of whole blood

## [NH2][Pt]1([NH]C2CCCC2)[O]C(=O)C2(CCC2)C(=O)[O]1 [Ex. 4, ammine(cyclobutane-1,1-dicarboxylato)cyclopentylamine platinum(II)]
[5]
  LD50 (dose level causing 50% deaths): 1600 mg/kg
[1]; 8 mg/kg
  % T/C (MST/MST control×100): 115%
  median survival time (MST): 22.5
[1]; 13 mg/kg i.p.
  % T/C (MST/MST control×100): 133%
  median survival time (MST): 26.0
[1]; 20 mg/kg i.p.
  % T/C (MST/MST control×100): 149%
  median survival time (MST): 29.0
[1]; 30 mg/kg i.p.
  % T/C (MST/MST control×100): 164%
  median survival time (MST): 32.0
[1]; mouse, in vivo
  number of mice alive (MA): 10/10
[2]
  therapeutic index TI (LD50/ED90): 32
  ED90 (dose level causing a 90% reduction in tumor size): 50 mg/kg
[4]; 40 mg/kg i.p.
  % T/C (MST/MST control×100): 154%
  median survival time (MST): 10.0
[4]; 80 mg/kg i.p.
  % T/C (MST/MST control×100): 177%
  median survival time (MST): 11.5
[4]; 120 mg/kg i.p.
  % T/C (MST/MST control×100): 177%
  median survival time (MST): 11.5
[4]; 160 mg/kg i.p.
  % T/C (MST/MST control×100): 192%
  median survival time (MST): 12.5
[4]; mouse, in vivo
  number of mice alive (MA): 6/6
[6]; mouse, in vivo, po, 1 h
  Blood conc. of Pt: 0.88 ± 0.05 μg/ml of whole blood
[6]; mouse, in vivo, po, 2 h
  Blood conc. of Pt: 1.21 ± 0.16 μg/ml of whole blood
[6]; mouse, in vivo, po, 4 h
  Blood conc. of Pt: 0.82 ± 0.12 μg/ml of whole blood
[6]; mouse, in vivo, po, 7 h
  Blood conc. of Pt: 0.32 ± 0.05 μg/ml of whole blood
[6]; mouse, in vivo, po, 24 h
  Blood conc. of Pt: 0.20 ± 0.03 μg/ml of whole blood
  Cage wash (cumulative %): 7.1 ± 0.7%
  Faeces dose (cumulative %): 57.6 ± 3.5%
  Urine dose (cumulative %): 16.8 ± 2.4%
[6]; mouse, in vivo, po, 48 h
  Blood conc. of Pt: 0.20 ± 0.03 μg/ml of whole blood
  Cage wash (cumulative %): 8.0 ± 0.9%
  Faeces dose (cumulative %): 59.8 ± 3.6%
  Urine dose (cumulative %): 18.2 ± 2.4%
